Assay results reported in paper PMC10975527 (Viruses, 2024).
Where two headings read alike, the source gives them in different places.

Experiments:
recombinant human PAPD7 = biological target: T1, recombinant human PAPD7 (Homo sapiens, UniProt Q5XG87); test: PAPD7 ATP depletion assay; format: biochemical; conditions: 12.5 nM enzyme, 750 nM ATP, 3 h, mean of 3 experiments; read-out: IC50, PAPD7-mediated incorporation of ATP
T1 construct: made in house

HCMV = test: Antiviral selectivity panel: HCMV; format: cell-based, human cytomegalovirus; conditions: Human betaherpesvirus 5, MRC5; MRC-5 (human lung)
HCV = test: Antiviral selectivity panel: HCV; format: cell-based; conditions: Hepatitis C virus; Huh-7 (human liver)
HBV [1] = test: HBV-infected primary human hepatocytes (PHH) antiviral assay; format: cell-based; conditions: Hepatitis B virus, Hepatocyte, genotype D
[2] = system: panel of RNA and DNA viruses; test: Antiviral selectivity against a panel of RNA and DNA viruses (summary); format: cell-based
in vitro [3] = conditions: hamster
in vitro [4] = format: in vitro ADME; conditions: monkey, plasma
HBV [5] = test: HBV-infected HepG2-hNTCP antiviral assay; format: cell-based; conditions: Hepatitis B virus, genotype D
IAV = test: microbe, parasite or virus in culture; format: cell-based; conditions: Influenza A virus, MDBK, in Bos taurus, read-out: EC50 (IAV)
Sprague Dawley rats = test: 13-week repeat-dose toxicity study in rats; format: in vivo
HBV pgRNA and preS/S RNA = test: Kinetics of HBV RNA degradation in HepAD38 cells (Northern blot); format: cell-based, hepatitis B virus; conditions: HepAD38, GLS4 + AB-161 (100 nM)
[6] = Tolerability in AAV-HBV mice; conditions: once-daily dosing for 14 days
in vitro [7] = conditions: monkey
in vitro [8] = format: in vitro ADME; conditions: human
RSV = test: Antiviral selectivity panel: RSV; format: cell-based; conditions: human respiratory syncytial virus, HEp-2; HEp2 (human epithelial)
in vitro [9] = format: in vitro ADME; conditions: dog, plasma
recombinant human PAPD5 = biological target: T2, recombinant human PAPD5 (Homo sapiens, UniProt Q8NDF8); test: PAPD5 ATP depletion assay; format: biochemical; conditions: 12.5 nM enzyme, 750 nM ATP, 3 h, mean of 3 experiments; read-out: IC50, PAPD5-mediated incorporation of ATP
T2 construct: made in house

WNV = test: Antiviral selectivity panel: WNV; format: cell-based; conditions: West Nile virus, Vero 76, in Primates; Vero76 (monkey kidney)
DENV2 = test: Antiviral selectivity panel: DENV2; format: cell-based, dengue virus type 2; conditions: Dengue virus, DENV2, BHK-21, in Mesocricetus auratus; BHK21 (hamster kidney)
[10] = mouse, in vivo
[11] = read-out: HBV RNA EC50 (converted)
[12] = read-out: HBeAg EC50 (converted)

T1 sequence (Q5XG87 226-558): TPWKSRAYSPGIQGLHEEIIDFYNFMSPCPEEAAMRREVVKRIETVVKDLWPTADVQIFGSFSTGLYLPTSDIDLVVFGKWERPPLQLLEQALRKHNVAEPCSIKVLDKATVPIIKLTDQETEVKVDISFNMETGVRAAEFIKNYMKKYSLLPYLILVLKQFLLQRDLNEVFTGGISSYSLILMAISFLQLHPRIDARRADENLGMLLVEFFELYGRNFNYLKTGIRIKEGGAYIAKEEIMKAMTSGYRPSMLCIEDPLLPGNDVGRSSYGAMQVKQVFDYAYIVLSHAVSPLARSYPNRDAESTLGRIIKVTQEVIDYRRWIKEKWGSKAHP
T2 sequence (Q8NDF8 106-438 limits assumed): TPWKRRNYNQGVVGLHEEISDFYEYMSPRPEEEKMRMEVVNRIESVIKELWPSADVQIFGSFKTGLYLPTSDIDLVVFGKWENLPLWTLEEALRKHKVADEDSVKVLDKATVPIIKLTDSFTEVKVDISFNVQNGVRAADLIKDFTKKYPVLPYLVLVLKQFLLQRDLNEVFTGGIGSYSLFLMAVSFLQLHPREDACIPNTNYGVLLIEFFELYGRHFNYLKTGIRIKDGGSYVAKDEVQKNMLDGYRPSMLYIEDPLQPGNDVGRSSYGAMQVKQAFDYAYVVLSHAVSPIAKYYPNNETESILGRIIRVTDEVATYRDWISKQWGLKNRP

COc1cc(OC(F)F)c2nc3c(n2c1)C[C@@H](C(C)(C)C)c1cc(C(=O)O)c(=O)[nH]c1-3 [AB-161]
IC50 (recombinant human PAPD7): 1.1 µM | EC50 (HCMV): > 30 µM | EC50 (HCV): > 30 µM | EC50 (HBV [1]; [11]): 0.0096 µM | EC50 (HBV [1]; [12]): 0.0119 µM | EC50 (HBV [1]; read-out: HBsAg EC50): 0.0085 ± 0.0047 µM | selectivity for HBV ([2]; HBV vs panel of RNA and DNA viruses): > 10,000 fold | activity against a panel of RNA and DNA viruses ([2]; all ten viruses, up to the highest concentration tested at 30 μM): inactive | CC50 (in vitro [3]): > 30 µM | fraction unbound at 6 h, 500 ng/mL (in vitro [4]): 0.02 | CC50 (Huh-7 cells; HBV transfected Huh-7, genotypes A–H): > 50 µM | CC50 (Huh-7 cells; Huh-7, HBV genotype A): > 50 µM | CC50 (Huh-7 cells; Huh-7, HBV genotype C): > 50 µM | CC50 (Huh-7 cells; Huh-7, HBV genotype D): > 50 µM | CC50 (Huh-7 cells; Huh-7, HBV genotype E): > 50 µM | CC50 (Huh-7 cells; Huh-7, HBV genotype F): > 50 µM | CC50 (Huh-7 cells; Huh-7, HBV genotype H-1): > 50 µM | CC50 (Huh-7 cells; Huh-7, HBV genotype H-2): > 50 µM | EC50 (HBV [5]; [11]): 0.0301 µM | EC50 (HBV [5]; [12]): 0.0209 µM | EC50 (HBV [5]; read-out: HBsAg EC50): 0.0253 ± 0.0109 µM | EC50 (IAV): > 30 µM | CC50 (HEp2 (human epithelial)): > 30 µM | reproductive safety findings (Sprague Dawley rats; male or female rats, 13-week administration, all doses): no reproductive safety findings | motor nerve conduction (Sprague Dawley rats; rats): No differences from baseline or time-matched controls | sensory nerve conduction velocity (NCV) (Sprague Dawley rats; rats, 500 mg/kg, day 70 and day 119, considered non-adverse): NCV delays were noted | levels of pgRNA and preS/S RNA (HBV pgRNA and preS/S RNA; 8 h and 16 h post-treatment): substantially reduced | migration of pgRNA and preS/S RNA (shortening of the viral transcripts) (HBV pgRNA and preS/S RNA; starting at 2 h post-treatment): faster migration | tolerability [6]: well-tolerated | CC50 (in vitro [7]): > 30 µM | plasma protein binding, bound (in vitro [8]; 6 h, 500 ng/mL): 95% | fraction unbound at 6 h, 500 ng/mL (in vitro [8]; plasma, plasma protein binding, bound): 0.049 | EC50 (RSV): > 30 µM | fraction unbound at 6 h, 500 ng/mL (in vitro [9]): 0.047 | IC50 (recombinant human PAPD5): 0.85 µM | EC50 (WNV): > 30 µM | EC50 (DENV2): > 30 µM | liver and kidney function markers (ALT, creatinine) [10]: no significant changes | CC50 (MRC-5 (human lung)): > 30 µM
